The source of these data is patent publication EP0318860B1, “Substituted alkylamine derivatives” (BANYU PHARMACEUTICAL CO., LTD., priority 1987, dated 1989).

Bounds are passed on as bounds.

One assay relates to Candida albicans. In words: Antimycotic activity test (Sabouraud's agar dilution, MIC). Particulars: 48 h, C. albicans, 37 °C for 2 days, read-out: MIC. The assay is classed as cell-based. The protocol: (§1) Each of the test fungi was cultured (Candida albicans was cultured overnight in Sabouraud broth; Trichophyton was inoculated in Sabouraud's agar and cultured for 2 days, after which the spores were harvested). Thereafter, one platinum loopful of Candida albicans or Trichophyton (10⁶ cells/ml for C. albicans; 10⁶ spores/ml for Trichophyton) was inoculated in Sabouraud's agar containing the test drug in various concentrations, and cultured (at 37 °C for 2 days for C. albicans; at 28 °C for 5 days for Trichophyton). Then, the minimum growth inhibition concentration (MIC) was measured. […]

The next assay has as its system Trichophyton. The assay is described as above. The format is cell-based. Particulars: 120 h, 28 °C for 5 days, read-out: MIC. The procedure:
as §1

In a further assay the target is T1, rat squalene epoxidase (Rattus norvegicus, UniProt P52020).
T1 construct: Livers were extracted and homogenized; from tissue; host or cells: liver of SD-strain female rats; microsomes solubilized with 2 % Triton X-100, 105000 x g supernatant
Put plainly: Squalene epoxidase inhibiting activity (3H-squalene to squalene-2,3-epoxide, solubilized liver microsome fraction). The assay is classed as biochemical. Particulars: 8 µM 3H-squalene, 37 °C, 30 minutes, read-out: 50 % inhibitory concentration (IC50). Background: Liver microsomes are a subcellular fraction often used to study metabolism.

A further assay concerns cholesterol biosynthesis. Put plainly: Test on inhibition of cholesterol biosynthesis in vivo ([14C] acetate, plasma 14C-cholesterol). Particulars: male SD rats, 100 mg/kg orally. The protocol:
Male SD rats, 5 weeks of age, were used in the in vivo test. The rats were kept for 9 days in an environment of reversed light cycle (i.e., dark between 6:00 am and 6:00 pm). The rats were allowed to take a solid diet and water freely. The test drug was orally administered two hours before dark sixth hour when the cholesterol synthesis reached a maximum. Compounds 6 and 44 were administered as a suspension in a 0.5 % aqueous solution of methyl cellulose. Compound 45 was administered in a 0.5 % aqueous solution of methyl cellulose containing 5 % of dimethyl sulfoxide and 1 % Tween 80. The dose was 1 ml/100 g of body weight.
An equal volume of 0.5 % methyl cellulose was administered to a control group. One hour after administration of the test drug, [¹⁴C] sodium acetate (56 mCi/mmole) was intraperitoneally administered to the rats in a dose of 20 µCi/100 g of body weight. At dark sixth hour, a blood sample was obtained from the abdominal artery under ether anesthesia, and the plasma was separated by centrifugation.
Two milliliters of plasma was mixed with a 15 % methanolic potassium hydroxide and saponified by heating at 75 °C for 3 hours. The resulting sample was extracted with 2 ml of petroleum ether twice. The extracts were washed with 2 ml of distilled water, and finally evaporated under a nitrogen stream. The resulting residue was dissolved in a small amount of ethyl ether, and all the solution was spotted on a pre-coated silica gel TLC plate. The plate was developed with a solvent system composed of hexane/ethyl ether/acetic acid (85:15:4). Color formation was carried out by iodine, and the radioactivity of the cholesterol portion was measured by a liquid scintillation counter.
The results were expressed in dpm of the resulting ¹⁴C-cholesterol present in 1 ml of the plasma. The inhibition of cholesterol biosynthesis was calculated by comparing the amounts of ¹⁴C-cholesterol biosynthesized in the test group and that in the control group.

The test system of assay [1] is cholesterol biosynthesis in the cultured Hep-G2 cells. Put plainly: Inhibitory activity on cholesterol biosynthesis in cultured cells ([14C] acetate incorporation). The format is cell-based. Particulars: HepG2; Human hepatoma (Hep-G2) cells, [14C] sodium acetate, 6 hours; read-out: 50% inhibitory concentration (IC₅₀). The procedure: Human hepatoma (Hep-G2) cells were cultured in 10 cm² dishes until they formed a monolayer. One milliliter of the culture medium was replaced, and 1 µCi of [¹⁴C] sodium acetate and 1 microliter of a dimethyl sulfoxide solution of a test drug were added, and the cells were cultured at 37 °C in air containing 5 % of carbon dioxide for 6 hours.
After the cultivation, the medium was aspirated, and the cells were cooled with ice, and washed with Dulbecco's phosphate buffered saline solution. The resulting cells were scraped by a rubber policeman, and collected by centrifugation. The cells collected were dissolved in 400 microliters of 0.3N sodium hydroxide. A 200 microliters aliquot of the solution was used for extraction, and the remainder, for protein determination.
To 200 microliters of the extracted cells, 15 % ethanolic potassium hydroxide was added, and saponification was carried out at 75 °C for 1 hour. Water (1 ml) was then added, and the mixture was extracted with 2 ml of petroleum ether twice to remove non-saponified materials. The petroleum ether extracts were washed with 1 ml of water, and evaporated under a nitrogen stream. The residue was spotted on a pre-coated silica gel TLC plate using a small amount of chloroform, and developed with hexane/ethyl ether/acetic acid (85:15:4). Cholesterol and squalene portions on the TLC were detected with iodine, and the corresponding TLC portions were cut out. The TLC strips were immersed in a toluene-type scintillator, and radioactivity was counted by a liquid scintillation counter. The results were corrected by the amount of proteins measured by the method described in J. Biol. Chem., vol. 193, page 265, 1951. The 50 % inhibitory concentration (IC₅₀ value) of the compound of the invention on cholesterol biosynthesis in the cultured Hep-G2 cells was calculated.

T1 sequence (P52020 whole entry): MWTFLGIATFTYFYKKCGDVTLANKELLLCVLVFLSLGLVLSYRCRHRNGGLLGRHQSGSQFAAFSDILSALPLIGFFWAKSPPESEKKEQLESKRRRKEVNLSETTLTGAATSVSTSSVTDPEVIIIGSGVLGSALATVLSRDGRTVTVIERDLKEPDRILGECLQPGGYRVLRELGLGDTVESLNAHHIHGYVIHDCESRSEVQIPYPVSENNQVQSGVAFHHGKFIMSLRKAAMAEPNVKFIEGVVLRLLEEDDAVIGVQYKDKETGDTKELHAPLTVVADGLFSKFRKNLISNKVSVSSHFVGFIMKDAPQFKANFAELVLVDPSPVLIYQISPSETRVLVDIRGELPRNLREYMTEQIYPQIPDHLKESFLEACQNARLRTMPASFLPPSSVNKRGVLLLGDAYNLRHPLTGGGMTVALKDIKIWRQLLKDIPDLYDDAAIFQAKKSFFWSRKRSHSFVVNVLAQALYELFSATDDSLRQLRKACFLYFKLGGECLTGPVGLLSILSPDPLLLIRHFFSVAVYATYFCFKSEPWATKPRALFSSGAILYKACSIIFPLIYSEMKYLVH

The term MIC denotes the lowest concentration that inhibits growth of the organism. For `CCCN(C/C=C/C#CC(C)(C)C)Cc1cccc(OCc2ccccc2C)c1.Cl` [Compound 45, (E)-N-(6,6-dimethyl-2-hepten-4-ynyl)-N-propyl-3-(2-methylbenzyloxy)benzylamine hydrochloride], the MIC with Candida albicans and in the assay on Trichophyton was over 100 µg/mL in each case. Besides, the IC50 amounted to 120 nM on rat squalene epoxidase and 83 nM in assay [1]. For the same compound, the ¹⁴C-cholesterol with cholesterol biosynthesis (dpm of 14C-cholesterol present in 1 ml of the plasma) is 274±155 dpm. Besides, in the assay with cholesterol biosynthesis (test group compared with control group), the “Inhibition of cholesterol biosynthesis” value is listed as 85%.
